The target in one assay is EN PA (Influenza A virus, UniProt P15659). As to the kind of experiment: EN PA FRET Inhibition Assay. The class given is biochemical. As to conditions: read-out: Potency.
Assay [1] has as its system Influenza strain A549 A/WSN/33 (H1N1). As to the kind of experiment: Influenza Antiviral Assay. The class given is cell-based, Influenza A virus. Conditions: Influenza A virus, A549, 20 h, neuraminidase fluorescence readout, read-out: % Inhibition.

The structures appear in SMILES notation.

On to `CON(C)C(=O)c1nn(CC2(n3cc(C)c4cccnc43)CCCC2)cc(O)c1=O` [Compound 774], for which, on EN PA, the IC50 is under 100 nM. Also, the EC50 in assay [1] is under 20000 nM.
In the case of `CCOC(=O)Oc1cn(CC2(n3cc(C)c4cccnc43)CCCC2)nc(C(=O)NC)c1=O` [Compound 775], the IC50 at EN PA was under 100 nM. The EC50 in assay [1] was under 20000 nM.
In the case of `CNC(=O)c1nn(CC2(c3ccccc3)CCC(C)(C)C2)cc(O)c1=O` (stereo not shown) [Compound 776], on EN PA, the IC50 was under 100 nM. Further, the EC50 in assay [1] is under 20000 nM.
For `CNC(=O)c1nn(CC2(c3ccc4ccccc4c3)CCCC2)cc(O)c1=O` [Compound 777], in that order: under 100 nM and under 20000 nM.
As to `CNC(=O)c1nn(CC2(c3ccccc3)CC(C)(C)C2)cc(O)c1=O` [Compound 778], the IC50 on EN PA is under 100 nM. For the same compound, the EC50 in assay [1] lay in the range of 20000 to 100000 nM.
Take `Cc1c(O)c(=O)c(C(=O)O)nn1CCc1ccccc1` [Compound 782]: the IC50 at EN PA was under 100 nM. The EC50 in assay [1] is over 100000 nM.
With `CNC(=O)c1nn(CC2(c3ccc(F)c(C(F)(F)F)c3)CCCC2)cc(O)c1=O` [Compound 783], the IC50 on EN PA was under 100 nM. In addition, the EC50 in assay [1] was under 20000 nM.
The like results for `O=C(NCc1ccc(F)c(Cl)c1)c1nn(CC2(c3ccc(Cl)c(Cl)c3)CCCC2)cc(O)c1=O` [Compound 784] were, in that order, 100 to 1000 nM and under 20000 nM.
In the case of `CC1(C)CC(Cn2cc(O)c(=O)c(C(=O)O)n2)(c2ccccc2)C1` [Compound 785], the IC50 at EN PA is under 100 nM. Also, the EC50 in assay [1] was over 100000 nM.
`CC1(C)CCC(Cn2cc(O)c(=O)c(C(=O)O)n2)(c2ccccc2)C1` (stereo not shown) [Compound 786]: the IC50 on EN PA was under 100 nM. In addition, the EC50 in assay [1] was over 100000 nM.
The like results for `CNC(=O)c1nn(CC2(n3cc(C)c4cccnc43)CCCCC2)cc(O)c1=O` [Compound 788] were, in that order, under 100 nM and under 20000 nM.
For `CNC(=O)c1nn(CC2(n3cc(C)c4cccnc43)CCCC2)cc(OC(=O)OC(C)(C)C)c1=O` [Compound 789], in that order: under 100 nM and under 20000 nM.
As for `CNC(=O)c1nn(CC2(n3c(C)cc4cccnc43)CCCC2)cc(O)c1=O` [Compound 790], the IC50 at EN PA is under 100 nM. In addition, the EC50 in assay [1] is under 20000 nM.
`CCCC(Cn1cc(O)c(=O)c(C(=O)NC)n1)n1cc(C)c2cccnc21` (stereo not shown) [Compound 791]: on EN PA, the IC50 was 100 to 1000 nM. Also, in assay [1], the EC50 was under 20000 nM.
The like results for `Cc1cn(C2(Cn3cc(O)c(=O)c(C(=O)NC(C)(C)C)n3)CCCC2)c2ncccc12` [Compound 792] were, in that order, under 100 nM and under 20000 nM.
On to `CNC(=O)c1nn(CC2(n3cc(C)c4cccnc43)CCCC2)cc(OC(=O)OC(C)C)c1=O` [Compound 793], for which, on EN PA, the IC50 was in the range of 100 to 1000 nM. Moreover, the EC50 in assay [1] was under 20000 nM.
For `O=C(c1nn(CC2(n3cc(Cl)c4cccnc43)CCCC2)cc(O)c1=O)N1CCC1` [Compound 794], in that order: under 100 nM and under 20000 nM.
For `CC(=O)c1nn(CC2(n3cc(C)c4cccnc43)CCCC2)cc(O)c1=O` [Compound 795], in that order: 100 to 1000 nM and under 20000 nM.
The like results for `CC1(C)CCC(Cn2cc(O)c(=O)c(C(=O)NCc3ccccc3)n2)(c2ccccc2)C1` (stereo not shown) [Compound 796] were, in that order, 100 to 1000 nM and over 100000 nM.
As for `CC1(C)CCC(Cn2cc(O)c(=O)c(C(=O)NCc3ccc(F)c(Cl)c3)n2)(c2ccccc2)C1` (stereo not shown) [Compound 797], the IC50 on EN PA lay in the range of 100 to 1000 nM. Also, the EC50 in assay [1] is under 20000 nM.
For `CC1(C)CC(Cn2cc(O)c(=O)c(C(=O)NCc3ccccc3)n2)(c2ccccc2)C1` [Compound 798], in that order: 100 to 1000 nM and over 100000 nM.
The like results for `CC1(C)CC(Cn2cc(O)c(=O)c(C(=O)NCc3ccc(F)c(Cl)c3)n2)(c2ccccc2)C1` [Compound 799] were, in that order, under 100 nM and under 20000 nM.
The like results for `CNC(=O)c1nn(CC2(c3cc(F)cc(C(F)(F)F)c3)CCCC2)cc(O)c1=O` [Compound 800] were, in that order, under 100 nM and under 20000 nM.
